Experimental data taken from patent publication US20100273822A1, “Immediate release compositions and methods for delivering drug formulations using strong acid ion exchange resins” (priority 2009, published 2010).

Assay: Dissolution test USP 31 NF 26 section 711, apparatus 1 baskets at 100 rpm
Assay type: physicochemical
Procedure: The release enhancing agent, CaCl2, was added to the capsule blend of the first sample while a second formulation was prepared as a control without the use of the release enhancing agent. Six capsules from each formulation were then tested for dissolution.
The test used followed USP 31 NF 26 section 711 using apparatus 1 baskets at 100 rpm (no enzymes). The media selected was simulated gastric (0.1N HCl) at a volume of 900 ml. One capsule was added to each dissolution vessel. At the 60 minute time point the baskets were removed without touching the contents and subsequently placed in dissolution vessels containing 900 ml of simulated intestinal fluid (pH of 6.8). Aliquots were drawn at 15, 30, 45, and 120 minutes. An equivalent amount of media was replaced in the dissolution vessel to account for the volume of the sample removed. The aliquots were filtered and subsequently analyzed using HPLC equipped with a UV detector.
The process that was used to create the resinate, filling the capsules and carrying out the dissolution test in this example was the same as described in Example 1 except that 60 mg of CaCl2 was used instead of 40 mg as in Example 1.

**Q.** With `[Ca+2].[Cl-].[Cl-]` [CaCl2] as the compound, how does the “effect of adding the release enhancing agent on release rate of dextromethorphan vs control formulation” value (Example 1, 40 mg CaCl2 in capsule with dextromethorphan IRP69 resinate) read?
**A.** increased the release rate of dextromethorphan

**Q.** What about the “effect of adding the release enhancing agent on release rate of dextromethorphan vs control formulation” value (Example 2, 60 mg CaCl2 in capsule with dextromethorphan IRP69 resinate) of the same compound?
**A.** increased the release rate of dextromethorphan
